Experimental data reported in article PMC12215270 (Nature Communications, 2025).

Columns and labels:
[1] = target: T1, TgCet (RNA triphosphatase) (Toxoplasma gondii, UniProt S8F0G9); assay: ATPase assay; format: biochemical
T1 sequence (S8F0G9 1-920): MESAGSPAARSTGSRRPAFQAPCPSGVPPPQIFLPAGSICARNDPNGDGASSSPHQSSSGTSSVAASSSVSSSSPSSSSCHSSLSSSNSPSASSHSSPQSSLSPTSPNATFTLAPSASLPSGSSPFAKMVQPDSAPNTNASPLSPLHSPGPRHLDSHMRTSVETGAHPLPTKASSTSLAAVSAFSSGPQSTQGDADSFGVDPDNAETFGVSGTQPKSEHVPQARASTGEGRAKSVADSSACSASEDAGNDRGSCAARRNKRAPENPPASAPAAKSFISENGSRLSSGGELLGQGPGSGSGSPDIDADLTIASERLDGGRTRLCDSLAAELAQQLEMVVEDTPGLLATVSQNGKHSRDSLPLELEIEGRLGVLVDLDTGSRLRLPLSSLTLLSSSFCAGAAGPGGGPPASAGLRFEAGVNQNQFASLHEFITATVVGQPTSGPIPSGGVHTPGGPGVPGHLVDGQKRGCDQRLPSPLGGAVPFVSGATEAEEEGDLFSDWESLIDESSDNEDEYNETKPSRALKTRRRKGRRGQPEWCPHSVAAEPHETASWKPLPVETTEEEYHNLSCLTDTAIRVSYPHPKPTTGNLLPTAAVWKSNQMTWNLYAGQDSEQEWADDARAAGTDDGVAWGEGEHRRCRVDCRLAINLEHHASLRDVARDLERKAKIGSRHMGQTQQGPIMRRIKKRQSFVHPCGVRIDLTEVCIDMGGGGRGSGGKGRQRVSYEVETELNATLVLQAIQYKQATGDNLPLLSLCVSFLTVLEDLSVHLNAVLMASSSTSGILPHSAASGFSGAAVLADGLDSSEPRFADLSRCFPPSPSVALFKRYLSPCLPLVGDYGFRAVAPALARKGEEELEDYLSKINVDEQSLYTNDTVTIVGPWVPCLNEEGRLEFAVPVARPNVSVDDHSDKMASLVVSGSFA

[2] = target: T2, TgCmt (guanine-N7 methyltransferase) (Toxoplasma gondii, UniProt S8F527); assay: in vitro RNA cap methylation, anti-m7G immuno-dot blot; format: biochemical
T2 sequence (S8F527 716-1283): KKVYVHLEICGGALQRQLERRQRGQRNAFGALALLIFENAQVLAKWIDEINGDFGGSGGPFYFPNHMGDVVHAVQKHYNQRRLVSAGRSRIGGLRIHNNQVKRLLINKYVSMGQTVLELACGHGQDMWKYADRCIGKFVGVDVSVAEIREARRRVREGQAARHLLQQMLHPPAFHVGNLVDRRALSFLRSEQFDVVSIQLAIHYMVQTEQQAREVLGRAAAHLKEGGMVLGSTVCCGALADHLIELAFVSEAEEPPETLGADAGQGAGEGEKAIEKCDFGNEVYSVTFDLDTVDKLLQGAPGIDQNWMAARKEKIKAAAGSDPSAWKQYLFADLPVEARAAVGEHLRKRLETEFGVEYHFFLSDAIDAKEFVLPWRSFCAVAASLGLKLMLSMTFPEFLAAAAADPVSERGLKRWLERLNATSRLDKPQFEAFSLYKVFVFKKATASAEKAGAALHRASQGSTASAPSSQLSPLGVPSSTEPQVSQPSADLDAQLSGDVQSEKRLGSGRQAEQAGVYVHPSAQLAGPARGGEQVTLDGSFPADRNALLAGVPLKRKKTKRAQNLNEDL

O=c1c(O)c(-c2cc(O)c(O)c(O)c2)oc2cc(O)cc(O)c12 [Myricetin]
IC50 [1]: 0.4 µM

Nc1ncnc2c1ncn2[C@@H]1O[C@H](C[C@@H](N)CC[C@H](N)C(=O)O)[C@@H](O)[C@H]1O [sinefungin]
in vitro RNA cap methylation, anti-m7G immuno-dot blot [2]: sinefungin inhibits m^7GpppN32 synthesis in a concentration-dependent manner
